Assay results published in ChEMBL document CHEMBL1201862, “PubChem BioAssay data set” (2004).
Active and inactive are the calls of the source.

What was measured:
[1] = biological target: Matrix metalloproteinase-14 (Homo sapiens, UniProt P50281); assay: Dose Response confirmation of uHTS hits for a small molecule inhibitors of MT1-MMP activation in a fluorescence assay set 1.; format: functional
[2] = biological target: T1, Microphthalmia-associated transcription factor (Homo sapiens, UniProt O75030); assay: reducers of TRPM1 reporter luminescence, concentration series – cell-based, SK-MEL-5, cherry-picked, set 3, MITF inhibitor project, dose response (AID 493073); format: functional;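 further: SK-MEL-5 melanoma cells with luciferase driven by the MITF target TRPM1 promoter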
T1 sequence (O75030 whole entry): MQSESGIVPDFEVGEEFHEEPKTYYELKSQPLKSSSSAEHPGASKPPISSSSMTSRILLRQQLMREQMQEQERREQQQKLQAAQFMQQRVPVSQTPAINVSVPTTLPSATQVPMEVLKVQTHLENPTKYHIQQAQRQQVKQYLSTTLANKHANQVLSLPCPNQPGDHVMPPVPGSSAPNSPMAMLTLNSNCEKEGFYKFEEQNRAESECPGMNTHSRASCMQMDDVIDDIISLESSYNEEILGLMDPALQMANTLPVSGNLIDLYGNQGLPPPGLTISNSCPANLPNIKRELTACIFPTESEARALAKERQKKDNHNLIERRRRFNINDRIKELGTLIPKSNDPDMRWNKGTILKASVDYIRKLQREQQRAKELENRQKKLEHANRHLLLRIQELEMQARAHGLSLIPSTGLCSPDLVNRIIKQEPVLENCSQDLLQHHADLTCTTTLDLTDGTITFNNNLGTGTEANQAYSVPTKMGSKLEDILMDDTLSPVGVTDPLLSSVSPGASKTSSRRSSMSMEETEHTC

[3] = biological target: Cytochrome P450 3A4 (Homo sapiens, UniProt P08684);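 further: CYP3A4 tested as one member of a cytochrome P450 panel screen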
[4] = general mammalian cell viability loss – inhibitor set, cherry-pick, set 2, cytotoxicity control for miR-122 modulator project, dose response (AID 720697); format: functional, cell-based
[5] = biological target: T2, Interleukin-8 (Homo sapiens, UniProt P10145); assay: Dose Response confirmation of uHTS small molecule hits for cystic fibrosis induced NFkb Inhibitors in a TNFa-induced IL8 counterscreen.; format: functional; conditions: read-out: IC50_Mean
[6] = tested on: Streptococcus; assay: GAS UMAA2166 growth inhibition – luminescence, BacTiterGlo, counter-screen for streptokinase expression inhibitor project, dose response (AID 1915); format: functional, organism-based;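 further: potency for reduction of bacterial viability or growth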
[7] = biological target: T3, Ubiquitin-conjugating enzyme E2 N (Homo sapiens, UniProt P61088); format: functional;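 further: Dose-response confirmation in a TR-FRET assay detecting UBC13-driven polyubiquitin chain formation, inhibition measured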
T3 sequence (P61088 whole entry): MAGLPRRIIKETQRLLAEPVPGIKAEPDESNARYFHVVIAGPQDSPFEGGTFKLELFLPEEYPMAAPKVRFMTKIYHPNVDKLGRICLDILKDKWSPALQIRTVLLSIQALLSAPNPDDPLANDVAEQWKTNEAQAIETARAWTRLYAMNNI

[8] = luciferase reporter signal suppression in cells – H4 neuroglioma cells, luminescence, dose response (AID 1990); format: functional, cell-based
[9] = biological target: Long-chain-fatty-acid--AMP ligase FadD28 (Mycobacterium tuberculosis, UniProt P9WQ59); assay: Fluorescence polarization aasay to screen for inhibitors that compete for the binding of FadD28 to a bisubstrate Measured in Biochemical System Using Plate Reader - 2147-01_Inhibitor_Dose_CherryPick_Activity.; format: functional, Mycobacterium tuberculosis H37Rv
[10] = Luminescence Cell-Based Dose Response HTS to Identify Inhibitors of 5'UTR Stem-Loop Driven Prion Protein mRNA Translation in H4 Neuroglioblastoma Cells. [Related pubchem assays: 1827 (Project Summary), 1813 (Primary HTS)]; format: functional
[11] = general cell-killing toxicity readout – plate reader, dry powder samples, cytotoxicity control for PAX8 inhibitor project, dose response (AID 743021); format: functional, cell-based
[12] = biological target: T2, Interleukin-8; assay: Dose Response confirmation of uHTS small molecule hits for cystic fibrosis induced NFkb Inhibitors in a PAF-induced IL8 counterscreen.; format: functional; conditions: read-out: IC50_Mean
[13] = biological target: Paired box protein Pax-8 (Homo sapiens, UniProt Q06710); assay: PAX8 transcriptional activity inhibition in RMG-I – RMG-I cells, luciferase, cherry-pick, dose response (AID 687027); format: functional, cell-based;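 further: luciferase reporter driven by Pax8 target thyroperoxidase promoter measured by SteadyGlo luminescence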
[14] = tested on: INS1; assay: INS-1E survival protection against cytokine death – cell-based, luminescence, retest, dose response (AID 449756); format: functional; conditions: Rattus norvegicus;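 further: cell death triggered by IL-1 beta plus TNF-alpha plus IFN-gamma mixture; protective hits raise ATP signal compared with cytokine alone wells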
[15] = tested on: Streptococcus sp. 'group A'; assay: Streptococcus pyogenes SK(-)GAS viability under kanamycin – luminescence, BacTiterGlo, confirmation, counter-screen for streptokinase expression inhibitor project, dose response (AID 1900); format: functional, organism-based
[16] = alpha-synuclein stem-loop luciferase translation blockers – H4 neuroglioma cells, luminescence, confirmation (AID 1988); format: functional, cell-based
[17] = biological target: T4, Streptokinase A (Streptococcus pyogenes serotype M1, UniProt P10520); assay: viability-normalized secreted streptokinase activity reduction – plasminogen activation absorbance, OD405, dose response (AID 1914); format: functional, Streptococcus pyogenes M1 GAS;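 further: secreted streptokinase activity via plasminogen activation per viability signal from cell pellet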
T4 sequence (P10520 whole entry): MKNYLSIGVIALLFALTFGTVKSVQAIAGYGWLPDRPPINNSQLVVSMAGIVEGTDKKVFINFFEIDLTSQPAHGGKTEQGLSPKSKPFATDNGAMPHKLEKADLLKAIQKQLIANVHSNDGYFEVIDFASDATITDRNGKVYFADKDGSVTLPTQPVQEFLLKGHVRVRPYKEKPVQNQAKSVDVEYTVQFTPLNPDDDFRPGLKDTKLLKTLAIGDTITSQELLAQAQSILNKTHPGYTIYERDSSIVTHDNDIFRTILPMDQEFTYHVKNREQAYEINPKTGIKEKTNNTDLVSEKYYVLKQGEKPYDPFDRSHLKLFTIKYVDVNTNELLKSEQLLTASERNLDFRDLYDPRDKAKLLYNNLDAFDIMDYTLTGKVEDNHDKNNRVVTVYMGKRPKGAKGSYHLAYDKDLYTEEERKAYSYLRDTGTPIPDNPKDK

[18] = activation of miR-122 Renilla sensor silencing – cell-based, Huh7 psiCHECK-miR122, Renilla luciferase, cherry-picked, dose response (AID 651956); format: functional;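 further: huh7 hepatoma cells stably carrying a psiCHECK-2 miR-122 sensor plasmid; renilla luciferase signal reporting endogenous miR-122 activity after 48 h compound exposure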
[19] = biological target: Melanocortin receptor 4 (Homo sapiens, UniProt P32245); format: functional, cell-based;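 further: Cell-based assay with luminescence read-out, confirmatory dose-response testing for agonist activity of biased ligands at MC4R; human U2OS cells with tagged receptor and beta-arrestin; potency of agonists that increase receptor coupling to beta-arrestin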
[20] = general mammalian cell viability loss – activator set, cherry-pick, cytotoxicity control for miR-122 modulator project, dose response (AID 720690); format: functional, cell-based;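 further: HEK293T human cells scored for general mammalian cytotoxicity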
[21] = biological target: T5, DNA repair protein RAD52 homolog (Homo sapiens, UniProt P43351); format: functional, biochemical
T5 sequence (P43351 whole entry): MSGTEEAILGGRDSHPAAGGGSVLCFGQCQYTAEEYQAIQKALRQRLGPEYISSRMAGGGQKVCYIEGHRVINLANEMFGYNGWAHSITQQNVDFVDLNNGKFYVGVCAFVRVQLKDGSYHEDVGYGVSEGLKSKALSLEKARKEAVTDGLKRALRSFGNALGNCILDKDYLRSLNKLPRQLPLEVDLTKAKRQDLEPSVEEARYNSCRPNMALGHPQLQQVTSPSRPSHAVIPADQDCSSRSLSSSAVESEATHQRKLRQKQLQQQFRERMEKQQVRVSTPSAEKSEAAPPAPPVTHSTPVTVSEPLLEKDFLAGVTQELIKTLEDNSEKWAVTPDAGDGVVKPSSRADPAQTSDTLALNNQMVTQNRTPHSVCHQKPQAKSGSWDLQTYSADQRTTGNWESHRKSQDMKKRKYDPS

[22] = biological target: DNA repair and recombination protein RAD54-like (Homo sapiens, UniProt Q92698); assay: RAD54 Holliday junction migration blockers – biochemical, fluorescence, cherry-picked samples, dose series, confirmation (AID 651657); format: functional
[23] = biological target: Broad substrate specificity ATP-binding cassette transporter ABCG2 (Homo sapiens, UniProt Q9UNQ0); assay: blockers of JC-1 export by ABCG2 – Ig-MXP3 cells, flow cytometry, dose response (AID 1690); format: functional
[24] = biological target: Albumin (Bos taurus, UniProt P02769); assay: Counterscreen for inhibitors of T-cell receptor (TCR)-CD3 interaction: Fluorescence-based biochemical high throughput dose response assay to identify inhibitors of T-cell receptor (TCR)-CD3 interaction using a TAMRA-labeled BSA probe.; format: functional
[25] = HEK-293T cell viability reduction – luminescence, B-cell screen hits, cytotoxicity control for BCR NF-kB inhibitor project, dose response (AID 489021); format: functional, cell-based;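 further: HEK-293T cells carrying an NF-kB luciferase reporter; cells exposed to compound for about 14 hours before viability readout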
[26] = biological target: Prothrombin (Bos taurus, UniProt P00735); assay: thrombin protease inhibitors – biochemical, fluorescence polarization, uHTS hits, dose response (AID 602369); format: functional
[27] = biological target: 72 kDa type IV collagenase (Homo sapiens, UniProt P08253); assay: Dose Response validation of uHTS RPN11 inhibitor hits using a MMP-2 Fluorescence assay.; format: functional
[28] = biological target: 26S proteasome non-ATPase regulatory subunit 14 (Homo sapiens, UniProt O00487); assay: inhibition of proteasome subunit RPN11 – biochemical, fluorescence polarization, uHTS hits, confirmation (AID 602368); format: functional
[29] = biological target: Photoreceptor-specific nuclear receptor (Homo sapiens, UniProt Q9Y5X4); format: functional, cell-based;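 further: CHO-S cells with Gal4-NCOR and VP16-NR2E3 two-hybrid luciferase reporter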
[30] = biological target: 5-hydroxytryptamine receptor 2A (Mus musculus, UniProt P35363); format: functional, cell-based;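 further: CHO-K1 cells with tagged receptor and beta-arrestin; agonist potency measured as compound-induced activation of the receptor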
[31] = biological target: Mu-type opioid receptor (Homo sapiens, UniProt P35372); format: functional, cell-based;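 further: U2OS cells with beta-arrestin recruitment to OPRM1 by beta-gal complementation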
[32] = biological target: Arf-GAP with SH3 domain, ANK repeat and PH domain-containing protein 1 (Homo sapiens, UniProt Q9ULH1); format: functional;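 further: biochemical fluorescence polarization dose–response screen measuring inhibition of ASAP1; ASAP1 GAP domain stimulating GTP hydrolysis by truncated human ARF1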
[33] = biological target: ADP-ribosylation factor GTPase-activating protein 1 (Rattus norvegicus, UniProt Q62848); assay: Fluorescence polarization-based biochemical high throughput dose response screening assay to identify inhibitors of ADP-ribosylation factor GTPase activating protein 1 (ARFGAP1).; format: functional
[34] = biological target: Beta-2 adrenergic receptor (Homo sapiens, UniProt P07550); assay: ADRB2 activation measured by internalization – cell-based, FAP fluorogen, flow cytometry, cherry pick 1, dose response (AID 588763); format: functional
[35] = Fluorescence-based cell-based high throughput dose response assay for inhibitors of the interaction of nucleotide-binding oligomerization domain containing 2 (NOD2) and the receptor-interacting serine-threonine kinase 2 (RIPK2).; format: functional; conditions: Homo sapiens
[36] = biological target: T6, Small ubiquitin-related modifier 1 (Homo sapiens, UniProt P63165); assay: SUMO1 protein interaction blockers, potency – biochemical, fluorescence polarization, uHTS hits, dose response (AID 624382); format: functional; conditions: read-out: IC50_Mean
[37] = biological target: T6, Small ubiquitin-related modifier 1; assay: SUMO1 protein-protein binding blockers, potency – biochemical, FRET, dose response (AID 624383); format: functional; conditions: read-out: IC50_Mean
[38] = biological target: Nuclear receptor subfamily 5 group A member 2 (Homo sapiens, UniProt O00482); format: functional, cell-based;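 further: HEK293T cells transfected with LRH-1 and a StAR promoter luciferase reporter; potency for inhibitors that lower LRH-1 driven reporter light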
[39] = biological target: Steroidogenic factor 1 (Homo sapiens, UniProt Q13285); assay: Counterscreen for inverse agonists of the liver receptor homolog-1 (LRH-1; NR5A2): Luminescence-based cell-based high throughput dose response assay to identify inverse agonists of the Steroidogenic Factor 1 Nuclear Receptor (SF1; NR5A1).; format: functional
[40] = nonselective StAR promoter luciferase inhibitors – cell-based, luminescence, luciferase reporter, counter-screen for LRH-1 inverse agonist project, dose response (AID 651969); format: functional
[41] = viability loss in HEK293T cells – cell-based, cherry-picks, cytotoxicity control for HIV Vif inhibitor project, dose response (AID 652208); format: functional
[42] = tested on: Vero; assay: viability loss in Vero cells – cell-based, plate reader, cherry-pick samples, cytotoxicity control, dose response (AID 687020); format: functional; conditions: Chlorocebus sabaeus

T6 sequence (P63165 whole entry): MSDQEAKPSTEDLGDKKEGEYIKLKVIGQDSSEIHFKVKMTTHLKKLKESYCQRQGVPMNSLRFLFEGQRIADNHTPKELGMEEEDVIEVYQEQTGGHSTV
T2 sequence (P10145 whole entry): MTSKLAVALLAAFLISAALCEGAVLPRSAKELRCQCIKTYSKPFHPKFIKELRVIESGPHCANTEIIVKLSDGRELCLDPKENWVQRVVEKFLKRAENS
Sequence of Melanocortin receptor 4 (P32245 whole entry): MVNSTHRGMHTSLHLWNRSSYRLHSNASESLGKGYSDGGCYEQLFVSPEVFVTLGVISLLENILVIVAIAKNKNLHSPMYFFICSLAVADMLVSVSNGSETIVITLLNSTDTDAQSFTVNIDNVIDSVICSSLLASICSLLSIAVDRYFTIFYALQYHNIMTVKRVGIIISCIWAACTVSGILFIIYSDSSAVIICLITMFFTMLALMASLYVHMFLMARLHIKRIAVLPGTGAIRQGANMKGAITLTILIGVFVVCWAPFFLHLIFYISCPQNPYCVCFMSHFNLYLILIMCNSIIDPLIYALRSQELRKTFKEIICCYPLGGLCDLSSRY
Sequence of DNA repair and recombination protein RAD54-like (Q92698 whole entry): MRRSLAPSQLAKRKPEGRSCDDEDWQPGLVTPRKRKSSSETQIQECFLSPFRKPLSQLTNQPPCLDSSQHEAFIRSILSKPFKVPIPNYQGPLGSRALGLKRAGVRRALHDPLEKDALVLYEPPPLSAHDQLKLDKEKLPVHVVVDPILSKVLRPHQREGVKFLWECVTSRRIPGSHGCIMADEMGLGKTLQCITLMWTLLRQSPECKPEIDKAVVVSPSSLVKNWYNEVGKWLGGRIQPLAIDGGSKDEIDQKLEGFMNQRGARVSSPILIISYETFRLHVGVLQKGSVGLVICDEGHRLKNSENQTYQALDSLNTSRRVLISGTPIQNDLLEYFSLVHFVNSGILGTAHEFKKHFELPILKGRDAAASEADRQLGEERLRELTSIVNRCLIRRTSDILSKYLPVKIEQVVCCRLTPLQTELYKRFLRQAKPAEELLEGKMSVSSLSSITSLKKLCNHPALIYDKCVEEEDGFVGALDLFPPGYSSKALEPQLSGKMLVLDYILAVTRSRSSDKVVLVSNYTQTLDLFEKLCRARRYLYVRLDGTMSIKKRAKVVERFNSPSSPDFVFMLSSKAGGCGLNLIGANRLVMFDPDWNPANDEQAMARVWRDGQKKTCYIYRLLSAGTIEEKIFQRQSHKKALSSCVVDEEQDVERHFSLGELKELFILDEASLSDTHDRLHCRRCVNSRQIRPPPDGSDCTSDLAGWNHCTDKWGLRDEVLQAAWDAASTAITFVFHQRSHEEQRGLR
Sequence of Arf-GAP with SH3 domain, ANK repeat and PH domain-containing protein 1 (Q9ULH1 whole entry, the tested form may be a part): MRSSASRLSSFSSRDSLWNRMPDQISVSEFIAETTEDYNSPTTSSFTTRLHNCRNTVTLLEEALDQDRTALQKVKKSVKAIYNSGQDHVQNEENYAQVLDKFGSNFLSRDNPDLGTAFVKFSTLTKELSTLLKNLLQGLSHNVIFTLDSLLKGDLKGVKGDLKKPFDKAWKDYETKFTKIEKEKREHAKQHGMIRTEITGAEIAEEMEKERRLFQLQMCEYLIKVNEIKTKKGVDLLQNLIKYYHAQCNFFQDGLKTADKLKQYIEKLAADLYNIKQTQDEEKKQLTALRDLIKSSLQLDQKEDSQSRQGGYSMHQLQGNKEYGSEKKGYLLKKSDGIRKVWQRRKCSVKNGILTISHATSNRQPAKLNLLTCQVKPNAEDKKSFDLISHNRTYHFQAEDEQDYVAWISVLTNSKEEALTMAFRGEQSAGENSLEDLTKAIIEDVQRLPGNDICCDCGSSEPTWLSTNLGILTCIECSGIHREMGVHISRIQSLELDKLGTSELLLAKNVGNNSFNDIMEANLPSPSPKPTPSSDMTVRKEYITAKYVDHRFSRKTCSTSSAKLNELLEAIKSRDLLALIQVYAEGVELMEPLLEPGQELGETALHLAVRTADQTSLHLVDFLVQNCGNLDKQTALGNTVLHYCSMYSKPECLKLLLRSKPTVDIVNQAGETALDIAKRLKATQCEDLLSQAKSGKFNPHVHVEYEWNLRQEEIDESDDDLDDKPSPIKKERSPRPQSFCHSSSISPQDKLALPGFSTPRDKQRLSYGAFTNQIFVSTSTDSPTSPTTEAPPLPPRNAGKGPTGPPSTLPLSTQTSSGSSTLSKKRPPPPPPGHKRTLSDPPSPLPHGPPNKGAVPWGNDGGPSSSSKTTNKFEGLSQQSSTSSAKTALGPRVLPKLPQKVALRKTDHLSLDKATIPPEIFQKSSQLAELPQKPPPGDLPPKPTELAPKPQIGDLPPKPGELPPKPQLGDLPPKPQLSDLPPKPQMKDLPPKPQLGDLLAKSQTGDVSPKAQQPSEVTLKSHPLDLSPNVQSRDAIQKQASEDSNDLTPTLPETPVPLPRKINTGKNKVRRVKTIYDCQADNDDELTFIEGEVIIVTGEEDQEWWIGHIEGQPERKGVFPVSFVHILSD
Sequence of Albumin (P02769 whole entry): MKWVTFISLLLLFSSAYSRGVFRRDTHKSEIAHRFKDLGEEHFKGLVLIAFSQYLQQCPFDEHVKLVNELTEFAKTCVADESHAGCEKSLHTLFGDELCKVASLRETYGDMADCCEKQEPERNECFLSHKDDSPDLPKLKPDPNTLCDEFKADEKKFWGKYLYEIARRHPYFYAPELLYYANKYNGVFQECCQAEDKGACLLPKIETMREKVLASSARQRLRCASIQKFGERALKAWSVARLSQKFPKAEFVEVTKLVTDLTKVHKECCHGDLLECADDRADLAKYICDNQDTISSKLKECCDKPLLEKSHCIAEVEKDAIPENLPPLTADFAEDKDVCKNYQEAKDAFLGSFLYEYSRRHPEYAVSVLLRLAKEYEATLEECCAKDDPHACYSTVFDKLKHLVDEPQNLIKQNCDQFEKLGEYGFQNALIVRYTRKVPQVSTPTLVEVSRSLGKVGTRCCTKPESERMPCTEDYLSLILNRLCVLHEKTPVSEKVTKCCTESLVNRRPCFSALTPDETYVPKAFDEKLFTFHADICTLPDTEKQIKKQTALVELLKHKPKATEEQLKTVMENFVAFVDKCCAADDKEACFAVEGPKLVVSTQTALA
Sequence of Photoreceptor-specific nuclear receptor (Q9Y5X4 whole entry, the tested form may be a part): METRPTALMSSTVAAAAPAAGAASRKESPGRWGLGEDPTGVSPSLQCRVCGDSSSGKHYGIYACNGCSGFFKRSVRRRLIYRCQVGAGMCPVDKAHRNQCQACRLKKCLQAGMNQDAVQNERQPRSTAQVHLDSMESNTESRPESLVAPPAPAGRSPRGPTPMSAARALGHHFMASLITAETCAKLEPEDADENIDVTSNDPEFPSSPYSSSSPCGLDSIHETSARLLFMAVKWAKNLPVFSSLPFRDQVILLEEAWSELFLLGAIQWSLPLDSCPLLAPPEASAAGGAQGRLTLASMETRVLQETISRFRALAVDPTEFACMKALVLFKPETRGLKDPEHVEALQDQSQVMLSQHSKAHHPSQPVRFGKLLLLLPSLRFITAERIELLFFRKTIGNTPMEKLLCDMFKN
Sequence of ADP-ribosylation factor GTPase-activating protein 1 (Q62848 whole entry): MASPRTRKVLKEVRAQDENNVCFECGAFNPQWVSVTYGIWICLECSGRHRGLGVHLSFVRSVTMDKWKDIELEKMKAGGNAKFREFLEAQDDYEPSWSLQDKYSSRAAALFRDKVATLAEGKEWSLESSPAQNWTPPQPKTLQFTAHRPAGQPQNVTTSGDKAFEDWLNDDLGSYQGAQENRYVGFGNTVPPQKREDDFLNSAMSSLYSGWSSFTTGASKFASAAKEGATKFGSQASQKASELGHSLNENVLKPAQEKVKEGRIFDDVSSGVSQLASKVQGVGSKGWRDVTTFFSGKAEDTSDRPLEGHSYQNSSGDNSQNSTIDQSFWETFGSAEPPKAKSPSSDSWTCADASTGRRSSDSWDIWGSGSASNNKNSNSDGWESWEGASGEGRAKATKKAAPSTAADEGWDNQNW
Sequence of Mu-type opioid receptor (P35372 whole entry, the tested form may be a part): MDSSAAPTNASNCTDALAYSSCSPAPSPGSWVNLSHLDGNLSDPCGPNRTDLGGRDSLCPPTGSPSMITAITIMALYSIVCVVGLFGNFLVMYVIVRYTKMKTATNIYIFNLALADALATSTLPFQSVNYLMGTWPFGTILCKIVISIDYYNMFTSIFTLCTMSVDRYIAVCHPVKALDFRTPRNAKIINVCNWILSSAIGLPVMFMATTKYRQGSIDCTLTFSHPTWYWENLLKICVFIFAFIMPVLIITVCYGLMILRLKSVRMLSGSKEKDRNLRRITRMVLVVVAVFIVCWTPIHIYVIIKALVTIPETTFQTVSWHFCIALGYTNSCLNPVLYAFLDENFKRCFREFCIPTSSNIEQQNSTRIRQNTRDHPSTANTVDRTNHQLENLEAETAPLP
Sequence of 72 kDa type IV collagenase (P08253 whole entry): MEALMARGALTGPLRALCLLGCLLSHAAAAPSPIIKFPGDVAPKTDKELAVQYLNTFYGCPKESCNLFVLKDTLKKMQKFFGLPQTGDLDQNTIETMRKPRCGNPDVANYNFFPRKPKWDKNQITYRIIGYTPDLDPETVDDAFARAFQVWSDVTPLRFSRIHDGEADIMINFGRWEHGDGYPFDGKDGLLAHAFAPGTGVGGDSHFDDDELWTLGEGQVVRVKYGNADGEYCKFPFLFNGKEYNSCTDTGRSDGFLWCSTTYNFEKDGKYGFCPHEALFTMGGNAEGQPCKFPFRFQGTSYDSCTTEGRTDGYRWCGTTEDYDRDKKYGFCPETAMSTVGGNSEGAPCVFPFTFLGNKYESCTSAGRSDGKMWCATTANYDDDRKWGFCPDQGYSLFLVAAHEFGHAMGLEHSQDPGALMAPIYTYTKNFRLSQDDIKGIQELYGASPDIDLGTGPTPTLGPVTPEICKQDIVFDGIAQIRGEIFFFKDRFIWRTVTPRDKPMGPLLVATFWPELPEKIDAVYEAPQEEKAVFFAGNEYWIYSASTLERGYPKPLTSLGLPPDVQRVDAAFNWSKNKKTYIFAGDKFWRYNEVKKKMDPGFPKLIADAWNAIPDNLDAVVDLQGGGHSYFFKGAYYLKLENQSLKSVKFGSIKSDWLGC

CC[n+]1c(/C=C/N(C)c2ccccc2)sc2ccc(Cl)cc21
IC50 [1]: > 80 µM (inactive) | AC50 [2]: 9.07 µM (active) | AC50 [3]: 17.8 µM (inconclusive)

CCN1CCN(Cc2ccc(NC(=O)c3ccc(C)c(NC(=O)C(=O)c4c[nH]c5ccccc45)c3)cc2C(F)(F)F)CC1
AC50 [4]: 8.7 µM (active) | IC50 [5]: 39.7 µM (inactive) | EC50 [6]: 7.74 µM (active) | IC50 [7]: > 20 µM (inactive) | EC50 [8]: 4.17 µM (inconclusive) | AC50 [9]: 12 µM (active) | EC50 [10]: 5.83 µM (active) | AC50 [11]: 68 µM (active) | IC50 [12]: 2.27 µM (active) | AC50 [13]: 12.1 µM (active) | AC50 [14]: 7.69 µM (active) | EC50 [15]: 4.28 µM (active) | EC50 [16]: 7.65 µM (active) | EC50 [17]: > 150 µM (not active) | AC50 [18]: 11.3 µM (active) | EC50 [19]: > 89.2 µM (inactive) | AC50 [20]: 14.1 µM (active)

CCN(CC)CCN=C(S)Nc1ccc2nc(N3CCN(C)CC3)cc(C)c2c1
AC50 [21]: 5.01 µM (active) | AC50 [22]: 17.2 µM (active)

COC(=O)c1ccc(C(C(=O)NC2CCCCC2)N(Cc2ccccc2)C(=O)Cc2cccs2)cc1 (configuration not stated)
EC50 [23]: 4.6 µM (active)

Cc1ccc(/C=C2\SC(=S)N(CCCC(=O)NNC(=O)c3ccccc3O)C2=O)cc1
IC50 [24]: > 94.1 µM (inactive) | IC50 [25]: > 80 µM (inactive) | IC50 [26]: 32.8 µM (active) | IC50 [27]: > 100 µM (inactive) | IC50 [28]: 28.3 µM (active)

O=C(C1CC1)N1CCc2cc(Br)cc(S(=O)(=O)N3CCN(c4ccccn4)CC3)c21
IC50 [29]: 1.06 µM (active)

CCOC(=O)N1CCC(N2CCCC(C(=O)c3ccccc3OC)C2)CC1 (configuration not stated)
EC50 [30]: 41.2 µM (inactive) | EC50 [31]: 92.5 µM (inactive)

CN(Cc1ccccc1F)C(=O)CN1c2cccc3cccc(c23)S1(=O)=O
IC50 [32]: 41 µM (inactive) | IC50 [33]: 47.1 µM (inactive)

N#Cc1cccc(NC(=O)COC(=O)c2ccccc2C(=O)c2ccc(Cl)c([N+](=O)[O-])c2)c1
EC50 [34]: 5.27 µM (inactive) | IC50 [35]: 1.99 µM (active)

O=C(NCc1ccccn1)c1ccc2c(=O)n3nc(Nc4ccccc4)sc3nc2c1
IC50 [36]: > 66.6 µM (inactive) | IC50 [37]: 8.94 µM (active)

COc1ccc(CCNC(=O)CSc2nc3nc(O)cc(O)c3s2)cc1
IC50 [38]: 97.8 µM (inactive) | IC50 [39]: 6.9 µM (active) | IC50 [40]: 35.9 µM (inactive)

NC(c1csc(Nc2ccc(C(=O)c3ccccc3)cc2)n1)C1CCCCC1 (configuration not stated)
AC50 [41]: 26.6 µM (active)

CCCN(CC(=O)Nc1ccccc1C)C(=O)C1CCN(S(=O)(=O)c2ccc(C)c(C)c2)CC1
AC50 [42]: 13.2 µM (active)
